Biological target: T1, human 5HT1A receptor (Homo sapiens, UniProt P08908)
T1 construct: expressed in transfected cells; host or cells: CHO cells (stably transfected)
T1 sequence (P08908 1-422): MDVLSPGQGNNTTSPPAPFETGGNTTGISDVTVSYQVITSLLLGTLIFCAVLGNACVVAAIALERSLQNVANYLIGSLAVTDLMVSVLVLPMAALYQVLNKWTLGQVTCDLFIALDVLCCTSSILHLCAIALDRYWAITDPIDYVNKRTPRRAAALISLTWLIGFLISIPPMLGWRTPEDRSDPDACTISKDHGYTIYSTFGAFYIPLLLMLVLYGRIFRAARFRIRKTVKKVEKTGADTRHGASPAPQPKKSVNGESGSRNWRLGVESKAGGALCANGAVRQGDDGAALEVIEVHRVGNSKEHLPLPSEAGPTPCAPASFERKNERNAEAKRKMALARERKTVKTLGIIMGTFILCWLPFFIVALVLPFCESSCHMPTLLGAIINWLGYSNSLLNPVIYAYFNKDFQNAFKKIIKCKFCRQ
Experiment: 5-HT1A Receptor Binding Assay (displacement of [3H]8-OH-DPAT in CHO cells stably transfected with human 5HT1A receptor)
Conditions: displacement of 8-OH-DPAT, 1.5 nM ligand, 30 minute incubation at room temperature
Experimental: High affinity for the serotonin 5--HT1A receptor was established by testing the claimed compound's ability to displace [^3 ]8-OH-DPAT binding in CHO cells stably transfected with human 5HT1A receptor. Stably transfected CHO cells are grown in DMEM containing 10% heat inactivated FBS and non-essential amino acids. Cells are scraped off the plate, transferred to centrifuge tubes, and washed twice by centrifugation (2000 rpm for 10 min., 4° C.) in buffer (50 mM Tris pH 7.5). The resulting pellets are aliquoted and placed at -80° C. On the day of assay, the cells are thawed on ice and resuspended in buffer. The binding assay is performed in a 96 well microtiter plate in a total volume of 250 μL. Non-specific binding is determined in the presence of […] 5HT, final ligand concentration is 1.5 nM. Following a 30 minute incubation at room temperature, the reaction is terminated by the addition of ice cold buffer and rapid filtration through a GF/B filter presoaked for 30 minutes in 0.5% PEI. Compounds are initially tested in a single point assay to determine percent inhibition at 1, 0.1, and 0.01 mM, and Ki values are determined for the active compounds.

## c1ccc(Cc2nc(C3CCCCC3)oc2CN2CCN(c3cccc4c3OCCO4)CC2)cc1 [Example 9, 1-(4-Benzyl-2-cyclohexyl-oxazol-5-ylmethyl)-4(2,3-dihydro-benzo[1,4]dioxin-5-yl)-piperazine]
  Ki: 4.72 nM

## c1ccc(Cc2nc(C3CCCCC3)oc2CN2CCN(c3cccc4[nH]ccc34)CC2)cc1 [Example 10, 4-[4-(4-Benzyl-2-cyclohexyl-oxazol-5-ylmethyl)-piperazin-1-yl]-1H-indole]
  Ki: 7.1 nM

## COc1ccccc1N1CCN(Cc2oc(C3CCCCC3)nc2Cc2ccccc2)CC1 [Example 11, 1-(4Benzyl-2-cyclohexyl-oxazol-5-ylmethyl)-4-(2-methoxyphenyl)-piperazine]
  Ki: 0.88 nM

— patent publication US6242448A, “Trisubstituted-oxazole derivatives as serotonin ligands” (American Home Products Corporation, priority 1999, dated 2001)
